# Test results published in patent US9969710B2, “Heteroaryl compounds as IRAK inhibitors and uses thereof” (Merck Patent GmbH, priority 2015, dated 2018).
# pIC50: −log10 of the molar value.
# Columns and labels:
# [1] = target: T1, IRAK1 (Homo sapiens, UniProt P51617); experiment: IRAK1 enzymatic assay (ADP-Glo luminescence); assay type: biochemical; details: human recombinant His-TEV-IRAK1 (194-712), ATP 1 μM; read-out: IRAK 1 IC50
# T1 construct: His-TEV-IRAK1 (194-712); His (N); TEV cleavage site (N)
# T1 sequence (P51617 194-712): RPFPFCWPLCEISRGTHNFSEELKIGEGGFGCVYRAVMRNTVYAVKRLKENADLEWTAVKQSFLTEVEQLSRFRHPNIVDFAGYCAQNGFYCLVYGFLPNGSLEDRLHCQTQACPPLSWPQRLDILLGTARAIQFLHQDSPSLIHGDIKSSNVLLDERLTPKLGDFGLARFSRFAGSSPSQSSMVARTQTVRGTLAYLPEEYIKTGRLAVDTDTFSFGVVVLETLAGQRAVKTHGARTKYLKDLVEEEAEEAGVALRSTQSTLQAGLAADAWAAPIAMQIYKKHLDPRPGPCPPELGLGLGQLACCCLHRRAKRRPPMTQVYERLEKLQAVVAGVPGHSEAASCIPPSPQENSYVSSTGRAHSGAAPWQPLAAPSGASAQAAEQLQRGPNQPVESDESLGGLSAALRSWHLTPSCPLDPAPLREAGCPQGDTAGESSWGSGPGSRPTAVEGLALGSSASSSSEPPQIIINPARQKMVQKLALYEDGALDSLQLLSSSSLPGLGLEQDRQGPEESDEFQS
# Experimental: IRAK1 is a human purified recombinant enzyme (His-TEV-IRAK1 (194-712))
# In this assay, IRAK1 hydrolyses ATP and autophosphorylates. Measurement of IRAK-1 inhibition is performed in 384-well format based on luminescence assay (ADP-Glo™ Kinase Assay from Promega). Purified human recombinant IRAK1 ([…]) and serial diluted compounds in DMSO (range of concentration from 10 μM to 0.5 nM) or controls (1% DMSO) are incubated for 15 minutes at RT in assay buffer containing 50 mM Hepes pH 7.0, Fatty acid-free BSA 0.1%, Dithiothreitol (DTT) 2 mM, MgCl2 10 mM, EGTA 0.5 mM, Triton X-100 0.01%. The kinase reaction is then initiated by the addition of ATP at a concentration of 1 μM. After 2 hours of incubation at RT, the reaction is stopped and the unconsumed ATP depleted by the addition of ADP-Glo™ Reagent according to supplier instructions. After 40 minutes of incubation at RT, the Kinase Detection Reagent is then added to the assay plate according to supplier instructions. After 20 minutes of incubation at RT, the luminescence signal is measured with a luminometer (PerkinElmer Envision or equivalent reader).
# [2] = target: T2, IRAK4 (Homo sapiens, UniProt Q9NWZ3); experiment: IRAK4 enzymatic assay (ADP-Glo luminescence); assay type: biochemical; details: human recombinant His-TEV-IRAK4 (1-460), STK1-biotin peptide substrate
# T2 construct: His-TEV-IRAK4 (1-460); His (N); TEV cleavage site (N)
# T2 sequence (Q9NWZ3 1-460): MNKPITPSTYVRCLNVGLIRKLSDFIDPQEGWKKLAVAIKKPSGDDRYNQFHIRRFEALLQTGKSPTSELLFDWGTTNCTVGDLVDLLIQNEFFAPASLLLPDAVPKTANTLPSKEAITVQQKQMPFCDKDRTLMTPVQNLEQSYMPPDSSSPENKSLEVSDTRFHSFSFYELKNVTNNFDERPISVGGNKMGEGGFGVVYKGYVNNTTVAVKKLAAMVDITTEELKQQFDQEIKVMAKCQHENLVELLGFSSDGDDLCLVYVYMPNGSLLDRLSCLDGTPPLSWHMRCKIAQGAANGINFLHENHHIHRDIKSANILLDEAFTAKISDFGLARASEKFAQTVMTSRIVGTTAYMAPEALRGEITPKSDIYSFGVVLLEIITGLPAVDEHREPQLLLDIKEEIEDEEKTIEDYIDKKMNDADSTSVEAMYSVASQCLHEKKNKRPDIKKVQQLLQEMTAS
# Experimental: IRAK4 is a human purified recombinant enzyme (His-TEV-IRAK4 (1-460)).
# In this assay, IRAK4 hydrolyses ATP, autophosphorylates and phosphorylates a Serine/Threonine generic peptidic substrate (STK: 61ST1BLC from CisBio International). Measurement of IRAK-4 inhibition is performed in 384-well format based on a luminescence assay (ADP-Glo™ Kinase Assay from Promega). Purified human recombinant IRAK4 ([…]) and serial diluted compounds in DMSO (range of concentration from 10 μM to 0.5 nM) or controls (1% DMSO) are incubated for 15 minutes at RT in assay buffer containing 50 mM Hepes pH 7.0, Fatty acid-free BSA 0.1%, Dithiothreitol (DTT) 2 mM, MgCl2 10 mM, EGTA 0.5 mM, Triton X-100 0.01%, MnCl2 5 mM. The kinase reaction is then initiated by the addition of ATP ([…]) and the peptidic substrate STK1-biotin peptide (300 nM). After 2 hours of incubation at RT, the reaction is stopped and the unconsumed ATP depleted by the addition of ADP-Glo™ Reagent according to supplier instructions. After 40 minutes of incubation at RT, the Kinase Detection Reagent is then added to the assay plate according to supplier instructions. After 20 minutes of incubation at RT, the luminescence signal is measured with a plate-reading luminometer (PerkinElmer Envision or equivalent reader).
# [3] = system: TLR7 induced IL-6 secretion in human mononuclear cells (PBMC's); experiment: TLR7 induced IL-6 in human PBMC's; assay type: cell-based; details: TLR7 specific ligand 2 uM overnight, IL-6 AlphaLISA
# Experimental: TLR7 Induced IL-6 in Human PBMC's
# Human PBMC assay was used as one of the functional assaya to monitor the activity of IRAK1 and IRAK4 small molecule inhibitors on TLR7 induced IL-6 secretion in human mononuclear cells (PBMC's). Human PBMCs were prepared from buffy coats (whole blood enriched with leukocytes and platelets) obtained from healthy volunteers used either fresh or frozen are plated in assay media (RPMI+2% P/S/L-glu+10% HI-FBS) and pre-treated with compounds in DMSO/media (range of concentrations from 25 uM to 0.4 nM) or controls (0.25% DMSO) for 30 minutes at 37° C. in assay media. Following pre-treatment with IRAK1 and IRAK4 inhibitors, PBMC's were stimulated with TLR7 specific ligand (2 uM) overnight (16-18 hrs) at 37° C. After incubation supernatant was transferred to 384 well PE AlphaPlate-384 (6005350) and IL-6 is quantified using Perkin Elmer IL-6 Alpha LISA kit (AL223C). Plates were read on an Envision® plate reader with Alpha Technology®.
Structure (SMILES),pIC50 [1],pIC50 [2],"pIC50 ([3]; Homo sapiens, PBMC)",pIC50 [3]
"CN1CCCC(c2ccc3c(c2)[nH]/c(=N\C(=O)c2cccc(C(F)(F)F)c2)n3C[C@](C)(F)CO)C1=O (stereo partly drawn) [Compound 16, (E)-N-(1-((S)-2-fluoro-3-hydroxy-2-methylpropyl)-5-(1-methyl-2-oxopiperidin-3-yl)-1H-benzo[d]imidazol-2(3H)-ylidene)-3-(trifluoromethyl)benzamide]",6.00 to 7.00,≥ 7.00,6.00 to 7.00,–
"CN1CCC[C@@H](c2ccc3c(c2)[nH]/c(=N\C(=O)c2cccc(C(F)(F)F)c2)n3CCCO)C1=O [Compound 1a, (S,E)-N-(1-(3-hydroxypropyl)-5-(1-methyl-2-oxopiperidin-3-yl)-1H-benzo[d]imidazol-2(3H)-ylidene)-3-(trifluoromethyl)benzamide]",≥ 7.00,≥ 7.00,≥ 7.00,–
"CN1CCCC(c2ccc3c(c2)[nH]/c(=N\C(=O)c2cccc(C(F)(F)F)c2)n3CCC(O)CO)C1=O (single isomer, unassigned) [Compound 22d]",6.00 to 7.00,≥ 7.00,–,6.00 to 7.00
"Cn1cncc(-c2ccc3c(c2)[nH]/c(=N\C(=O)c2cccc(C(F)(F)F)c2)n3CCCO)c1=O [Compound 5, (E)-N-(1-(3-hydroxypropyl)-5-(1-methyl-6-oxo-1,6-dihydropyrimidin-5-yl)-1H-benzo[d]imidazol-2(3H)-ylidene)-3-(trifluoromethyl)benzamide]",6.00 to 7.00,≥ 7.00,6.00 to 7.00,–
"CN1CCCC(c2ccc3c(c2)[nH]/c(=N\C(=O)c2cccc(C(F)(F)F)c2)n3CCCO)C1=O (stereo not drawn) [Compound 1, (E)-N-(1-(3-hydroxypropyl)-5-(1-methyl-2-oxopiperidin-3-yl)-1H-benzo[d]imidazol-2(3H)-ylidene)-3-(trifluoromethyl)benzamide]",≥ 7.00,≥ 7.00,≥ 7.00,–
"CC(=O)N1C2CCC1CC(c1ccc3c(c1)[nH]/c(=N\C(=O)c1cccc(C(F)(F)F)c1)n3CCCO)C2 (stereo not drawn) [Compound 15, (E)-N-(5-(8-acetyl-8-azabicyclo[3.2.1]octan-3-yl)-1-(3-hydroxypropyl)-1H-benzo[d]imidazol-2(3H)-ylidene)-3-(trifluoromethyl)benzamide]",≥ 7.00,≥ 7.00,≥ 7.00,–
"CN1CCC(c2ccc3c(c2)[nH]/c(=N\C(=O)c2cccc(C(F)(F)F)c2)n3CCC(O)CO)C1=O (single isomer, unassigned) [Compound 21d]",≥ 7.00,≥ 7.00,–,6.00 to 7.00
"CN1CCC(c2ccc3c(c2)[nH]/c(=N\C(=O)c2cccc(C(F)(F)F)c2)n3CC(O)CO)C1=O (stereo not drawn) [Compound 20, N-[1-(2,3-Dihydroxy-propyl)-5-(1-methyl-2-oxo-pyrrolidin-3-yl)-1,3-dihydro-benzoimidazol-(2E)-ylidene]-3-trifluoromethyl-benzamide]",6.00 to 7.00,≥ 7.00,6.00 to 7.00,–
"CN1CC[C@H](c2ccc3c(c2)nc(NC(=O)c2cccc(C(F)(F)F)c2)n3CCCO)C1=O [Compound 23b, N-[1-(3-hydroxypropyl)-5-[(3R)-1-methyl-2-oxopyrrolidin-3-yl]-1H-1,3-benzodiazol-2-yl]-3-(trifluoromethyl) benzamide]",6.00 to 7.00,≥ 7.00,6.00 to 7.00,–
"CN1CCC[C@@H](c2ccc3c(c2)[nH]/c(=N\C(=O)c2cccc(C(F)F)c2)n3C[C@@](C)(F)CO)C1=O [Compound 3d, 3-(difluoromethyl)-N-[(2E)-1-[(2R)-2-fluoro-3-hydroxy-2-methylpropyl]-5-[(3S)-1-methyl-2-oxopiperidin-3-yl]-2,3-dihydro-1H-1,3-benzodiazol-2-ylidene]benzamide]",≥ 7.00,≥ 7.00,≥ 7.00,–
"CC(=O)N1CCC(c2ccc3c(c2)[nH]/c(=N\C(=O)c2cccc(C(F)(F)F)c2)n3CCCO)C1 (stereo not drawn) [Compound 12, (E)-N-(5-(1-acetylpyrrolidin-3-yl)-1-(3-hydroxypropyl)-1H-benzo[d]imidazol-2(3H)-ylidene)-3-(trifluoromethyl)benzamide]",6.00 to 7.00,≥ 7.00,6.00 to 7.00,–
"C=CCn1/c(=N/C(=O)c2cccc(C(F)(F)F)c2)[nH]c2cc(C3CCN(C)C3=O)ccc21 (stereo not drawn) [Compound 19, N-[1-Allyl-5-(1-methyl-2-oxo-pyrrolidin-3-yl)-1,3-dihydro-benzoimidazol-(2E)-ylidene]-3-trifluoromethyl-benzamide]",6.00 to 7.00,≥ 7.00,6.00 to 7.00,–
"CN1CC(c2ccc3c(c2)nc(NC(=O)c2cccc(C(F)F)c2)n3CCCO)C(C)(C)C1=O (single isomer, unassigned) [Compound 27a]",≥ 7.00,≥ 7.00,6.00 to 7.00,–
"CN1CCCC(c2ccc3c(c2)[nH]/c(=N\C(=O)c2cccc(C(F)(F)F)c2)n3CCC(O)CO)C1=O (single isomer, unassigned) [Compound 22c]",6.00 to 7.00,≥ 7.00,–,5.00 to 6.00
"CN1CCCC(c2ccc3c(c2)[nH]/c(=N\C(=O)c2cccc(C(F)(F)F)c2)n3CCC(O)CO)C1=O (single isomer, unassigned) [Compound 22b]",≥ 7.00,≥ 7.00,–,≥ 7.00
"CN1C(=O)CC[C@@]1(C)c1ccc2c(c1)nc(NC(=O)c1cccc(C(F)F)c1)n2CCCO [Compound 31b, 3-(difluoromethyl)-N-{5-[(2S)-1,2-dimethyl-5-oxopyrrolidin-2-yl]-1-(3-hydroxypropyl)-1H-1,3-benzodiazol-2-yl}benzamide]",5.00 to 6.00,≥ 7.00,5.00 to 6.00,–
"CN1CCC(C)(c2ccc3c(c2)nc(NC(=O)c2cccc(C(F)F)c2)n3CCCO)C1=O (single isomer, unassigned) [Compound 30a]",5.00 to 6.00,≥ 7.00,5.00 to 6.00,–
"CN1C(=O)CCC1(C)c1ccc2c(c1)nc(NC(=O)c1cccc(C(F)(F)F)c1)n2CCCO (single isomer, unassigned) [Compound 32a]",6.00 to 7.00,≥ 7.00,5.00 to 6.00,–
"CN1CCC(C)(c2ccc3c(c2)nc(NC(=O)c2cccc(C(F)(F)F)c2)n3CCCO)C1=O (single isomer, unassigned) [Compound 29a]",5.00 to 6.00,≥ 7.00,–,5.00 to 6.00
"CN1CC[C@@](C)(c2ccc3c(c2)nc(NC(=O)c2cccc(C(F)F)c2)n3CCCO)C1=O [Compound 30b, N-{5-[(3S)-1,3-dimethyl-2-oxopyrrolidin-3-yl]-1-(3-hydroxypropyl)-1H-1,3-benzodiazol-2-yl}-3-(diifluoromethyl)benzamide]",6.00 to 7.00,≥ 7.00,5.00 to 6.00,–
